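How tested: cells in 96-well plates exposed to compound for 48 hours at five concentrations. Definition used: TGI = concentration required for complete inhibition of growth.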
Columns and labels:
Test in all cases: NCI-60 cell line screen, 48 h
[1] = system: OVCAR-3 ovarian
[2] = system: MOLT-4 leukemia
[3] = system: 786-0 renal
[4] = system: NCI-H23 lung
[5] = system: HS 578T breast
[6] = system: SK-OV-3 ovarian
[7] = system: HCT-15 colon
[8] = system: HT29 colon
[9] = system: MALME-3M melanoma
[10] = system: T-47D breast
[11] = system: CAKI-1 renal
[12] = system: NCI-H226 lung
[13] = system: RPMI-8226 leukemia
[14] = system: OVCAR-5 ovarian
[15] = system: SK-MEL-5 melanoma
[16] = system: SN12C renal
[17] = system: HOP-62 NSCLC
[18] = system: EKVX NSCLC
[19] = system: LOX IMVI melanoma
[20] = system: K-562 leukemia
[21] = system: UACC-257 melanoma
[22] = system: HL-60(TB) leukemia
[23] = system: SF-295 CNS
[24] = system: SNB-75 CNS
[25] = system: MCF7 breast
[26] = system: DU-145 prostate
[27] = system: COLO 205 colon
[28] = system: IGROV1 ovarian
[29] = system: MDA-N
[30] = system: SNB-19 CNS
[31] = system: PC-3 prostate
[32] = system: NCI/ADR-RES ovarian
[33] = system: OVCAR-8 ovarian
[34] = system: UO-31 renal
[35] = system: SF-268 CNS
[36] = system: BT-549 breast
[37] = system: CCRF-CEM leukemia
[38] = system: RXF 393 renal
[39] = system: ACHN renal
[40] = system: U251 CNS
[41] = system: NCI-H460 lung
[42] = system: TK-10 renal
[43] = system: M14 melanoma
[44] = system: SR leukemia
[45] = system: SK-MEL-28 melanoma
[46] = system: OVCAR-4 ovarian
[47] = system: A549 NSCLC
[48] = system: NCI-H522 lung
[49] = system: HCT-116 colon
[50] = system: UACC-62 melanoma
[51] = system: MDA-MB-231 breast
[52] = system: KM12 colon
[53] = system: SK-MEL-2 melanoma
[54] = system: HOP-92 NSCLC
[55] = system: SF-539 CNS
[56] = system: MDA-MB-435
[57] = system: SW-620 colon

Measured: TGI

S=C1C=C(c2ccccc2)Sc2ccccc2N1
not listed: [53] | [54] | [55] | [56] | [57]
> 100 µM: all other assays above

COc1nc(=O)n(C2CC(N=[N+]=[N-])C(CO)O2)cc1C (stereo not drawn)
not listed: [6] | [11] | [13] | [24] | [27] | [38]
> 100 µM: all other assays above

— PubChem BioAssay (NCI)
